# In patent publication EP1013272A1, “Manipulation of the activity of a nitric oxide radical production pathway for the treatment of diseases associated with the presence of oxygen free radicals” (Biomedical Primate Research Centre (BPRC), priority 1998, dated 2000):
# Legend:
# rat spleen cell cultures = test: In vivo exposure to HgCl2, then ELISPOT of Con A-stimulated spleen cell cultures; details: for reduction in the ratio of IFN-γ pc/IL-4 pc: day 3 after first HgCl2 injection
# Description: (§1) Female BN and Lewis rats at 8 to 12 weeks of age were used in all experiments. Animals were obtained from Harlan CPB (Zeist, The Netherlands) and housed in the animal care facility of our institute and maintained on standard laboratory chow and water ad libitum. For some experiments, rats were injected twice with 1 mg HgCl2/kg body weight by the intraperitoneal route with an interval of 48 h. Four repeated i.p. injections with this dose of HgCl2 at 48 h intervals induce a TH2-biased autoimmune syndrome in BN but not Lewis rats that becomes clinically evident (massive proteinuria) approximately 13 days after the first injection with HgCl2 (16).
# The aseptically removed spleen was gently crushed with the blunt end of a 5-ml syringe plunger and passaged through a fine mesh nylon screen. Erythrocytes were hemolysed by adding cold sterile water for 20 sec. to cell pellets followed by the addition of half the volume of 2.7% saline. The number of cells was determined by use of Türk's solution and cell viability by means of trypan blue exclusion. Cell suspensions in which the viability was less than 85% were excluded from the studies. Splenocytes were washed twice with CM5, adjusted to 4 x 10^6 cells/ml, transferred to a 24-well culture plate (1.0 ml/well) and stimulated with Con A (5 µg/ml) in the presence or absence of various supplements (as indicated in the text) for 40 h at 37°C in a humidified atmosphere containing 5% CO2. Thereafter, non-adherent cells were collected and subjected to ELISPOT analyses as described below.
# The ELISPOT assay for detecting single cytokine secreting cells has been detailed previously (17). Briefly, the wells of PVC microplates were coated with monoclonal antibodies specific for rat IFN-γ or rat IL-4. After washing and postcoating, 100 µl suspensions of Con A-activated splenocytes were pipetted into the wells. The cells were allowed the produce cytokines for either 4 h (IFN-γ pc) or 16 h (IL-4 pc). Thereafter, cells were lysed for 10 minutes with ice-cold distilled water. Subsequently, the wells were thoroughly washed with PBS containing 0.05% Tween-20. Spots were detected by the sequential incubation of biotinylated rabbit anti-cytokine antibodies and goat anti-biotin antibodies conjugated to alkaline phosphatase (AP). The AP substrate 5-bromo-4-chloro-3-indolyl phosphate was used to produce blue zones ('spots') that visualised the positions of the individual spot-forming cells (SFC). SFC were enumerated by image analysis using a stereo microscope coupled to a colour video camera and Micro Image software from Olympus Optical Co. The frequency of spontaneously occurring SFC was always less than 1% of the mitogen-induced frequency.
# Spleens were isolated from rats at 24 h after the second intraperitoneal injection with saline or HgCl2 (1 mg/kg b.w.). Spleen cells were stimulated with Con A (5 µg/ml) in the presence of 2 mM GSH. The experiments were performed at three independent occasions with similar results. At each occasion the ELISPOT analyses were performed in quadruplicate. One representative experiment is presented. Both reduction of IFN-γ pc and enhancement of IL-4 pc (BN splenocytes only) as a result of in vivo exposure to HgCl2 reached in all analyses statistical significance (p < 0.01).
# splenocytes = test: Superoxide anion release by splenocytes after in vivo HgCl2; parameters: species or system rat
# Description: as §1
# The pMØ monolayers were incubated for 20 h at 37°C in CM10 and subsequently washed (twice) with Hanks' balanced salt solution (HBSS) without phenol red. Thereafter, the cells were treated with PMA and assayed for ^·O2^- production by measuring the rate of SOD-inhibitable ferricytochrome C reduction (20, 21). To that purpose the macrophage monolayer was incubated for 1 h at 37°C with an 1.0 ml reaction mixture containing 100 µM ferricytochrome C in HBSS with or without PMA (100 ng/ml). […] Each test was run in duplicate and the absorption increase at 550 nm was measured using a Beckmann DU-5 spectrophotometer. ^·O2^- release by splenocytes was determined after Con A activation of 4 x 10^6 cells for 20 h. […]
# [1] = BN, HgCl2 in vivo, no culture supplement, Con A + 2 mM GSH (Table 4)
# [2] = BN, HgCl2 in vivo, no culture supplement, Con A + 2 mM GSH (Table 6)
# [3] = BN, HgCl2 1 mg/kg b.w. i.p. twice, spleens 24 h after second injection, Con A 5 µg/ml + 2 mM GSH
# [4] = Lewis, HgCl2 in vivo, no culture supplement, Con A + 2 mM GSH (Table 4)
# [5] = Lewis, HgCl2 in vivo, no culture supplement, Con A + 2 mM GSH (Table 6)
# [6] = Lewis, HgCl2 1 mg/kg b.w. i.p. twice, spleens 24 h after second injection, Con A 5 µg/ml + 2 mM GSH
structure (smiles),measurement,setting,value
"[Cl][Hg][Cl] [HgCl2, mercuric chloride]",reduction in the ratio of IFN-γ pc/IL-4 pc,rat spleen cell cultures; BN splenocyte cultures,~6 fold
same,IFN-γ pc per 1x10^4 MNC,rat spleen cell cultures; [1],30 ± 8 per 1 x 10^4 MNC
same,IL-4 pc per 2x10^5 MNC,rat spleen cell cultures; [1],88 ± 14 per 2 x 10^5 MNC
same,ratio IFN-γ pc/IL-4 pc,rat spleen cell cultures; [1],6.8
same,IFN-γ pc per 1x10^4 MNC,rat spleen cell cultures; [2],35 ± 8 per 1x10^4 MNC
same,IL-4 pc per 2x10^5 MNC,rat spleen cell cultures; [2],87 ± 14 per 2x10^5 MNC
same,ratio pc IFN-γ/IL-4,rat spleen cell cultures; [2],8
same,IFN-γ pc per 1x10^4 MNC,rat spleen cell cultures; [3],34 ± 8 per 1 x 10^4 MNC
same,IL-4 pc per 2x10^5 MNC,rat spleen cell cultures; [3],101 ± 12 per 2 x 10^5 MNC
same,ratio IFN-γ pc/IL-4 pc,rat spleen cell cultures; [3],6.7
same,reduction in the ratio of IFN-γ pc/IL-4 pc,rat spleen cell cultures; Lewis splenocyte cultures,~2 fold
same,IFN-γ pc per 1x10^4 MNC,rat spleen cell cultures; [4],104 ± 1 per 1 x 10^4 MNC
same,IL-4 pc per 2x10^5 MNC,rat spleen cell cultures; [4],11 ± 3 per 2 x 10^5 MNC
same,ratio IFN-γ pc/IL-4 pc,rat spleen cell cultures; [4],189
same,IFN-γ pc per 1x10^4 MNC,rat spleen cell cultures; [5],104 ± 11 per 1x10^4 MNC
same,IL-4 pc per 2x10^5 MNC,rat spleen cell cultures; [5],13 ± 3 per 2x10^5 MNC
same,ratio pc IFN-γ/IL-4,rat spleen cell cultures; [5],160
same,IFN-γ pc per 1x10^4 MNC,rat spleen cell cultures; [6],103 ± 9 per 1 x 10^4 MNC
same,IL-4 pc per 2x10^5 MNC,rat spleen cell cultures; [6],12 ± 7 per 2 x 10^5 MNC
same,ratio IFN-γ pc/IL-4 pc,rat spleen cell cultures; [6],172
same,^·O2^- levels,splenocytes,below the detection limit
